Measured values: patent US20090137577A1, “HETEROCYCLIC COMPOUNDS” (Pfizer Inc., priority 2007, published 2009)

Target: T1, mGluR2 receptor (metabotropic glutamate receptor 2) (Homo sapiens, UniProt Q14416)
T1 construct: expressed in transfected cells
Assay: mGluR2 potentiator screen (FLIPR, EC10-EC20 glutamate challenge);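 further: HEK cells stably expressing human mGluR2 with GL15 G protein, Fluo-4 calcium fluorescence read on FLIPR, compounds added before an EC10-EC20 glutamate challenge to detect potentiation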
Assay type: cell-based
Conditions: geometric mean; read-out: mGluR 2 EC50 (geometric mean)

T1 sequence (Q14416 19-872, species assumed): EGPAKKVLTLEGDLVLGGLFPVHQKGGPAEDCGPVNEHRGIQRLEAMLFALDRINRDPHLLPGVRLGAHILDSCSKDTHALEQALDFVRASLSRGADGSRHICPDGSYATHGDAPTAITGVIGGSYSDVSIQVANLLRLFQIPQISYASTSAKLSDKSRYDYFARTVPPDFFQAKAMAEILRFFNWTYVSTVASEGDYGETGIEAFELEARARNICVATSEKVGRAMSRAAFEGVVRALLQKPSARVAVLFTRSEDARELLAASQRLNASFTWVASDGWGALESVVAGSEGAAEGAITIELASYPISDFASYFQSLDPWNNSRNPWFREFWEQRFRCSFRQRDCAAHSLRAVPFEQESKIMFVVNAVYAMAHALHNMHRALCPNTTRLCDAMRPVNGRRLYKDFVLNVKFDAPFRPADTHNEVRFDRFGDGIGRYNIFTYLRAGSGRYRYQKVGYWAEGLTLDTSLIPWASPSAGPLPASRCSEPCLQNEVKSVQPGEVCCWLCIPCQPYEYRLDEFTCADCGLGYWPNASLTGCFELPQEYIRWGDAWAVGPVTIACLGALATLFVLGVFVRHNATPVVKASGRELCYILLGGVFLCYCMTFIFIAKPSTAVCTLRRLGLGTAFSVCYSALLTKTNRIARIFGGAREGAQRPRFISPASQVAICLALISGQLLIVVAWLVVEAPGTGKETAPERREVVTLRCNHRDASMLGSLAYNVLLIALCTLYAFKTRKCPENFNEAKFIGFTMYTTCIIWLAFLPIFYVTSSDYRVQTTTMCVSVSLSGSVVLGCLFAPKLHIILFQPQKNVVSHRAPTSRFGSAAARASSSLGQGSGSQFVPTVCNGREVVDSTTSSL

| EC50 [nM] | SMILES |
| --- | --- |
| < 21.6 | CC(Oc1ccc(CN2C[C@@H](C)OC2=O)cc1F)C1CCCCC1 (stereo partly drawn) [Example 230, (5R)-3-[4-(1-Cyclohexylethoxy)-3-fluorobenzyl]-5-methyl-1,3-oxazolidin-2-one] |
| < 40.8 | CC(C)Oc1ccc(-c2ccc(CN3C[C@@H](C)OC3=O)cc2)cc1 [Example 57, (5R)-3-[(4′-isopropoxybiphenyl-4-yl)methyl]-5-methyl-1,3-oxazolidin-2-one] |
| 112 | C[C@@H]1CN(Cc2ccc(-c3ccc(Cl)c(F)c3)cc2)C(=O)O1 [Example 237] |
| 309 | Cc1cc(CN2C[C@@H](C)OC2=O)ccc1OCc1ccc(C(F)(F)F)cc1 [Example 284, (5R)-5-Methyl-3-(3-methyl-4-{[4-(trifluoromethyl)benzyl]oxy}benzyl)-1,3-oxazolidin-2-one] |
| 71.2 | Cc1cc(CN2C[C@@H](C)OC2=O)ccc1OCC1CCCCC1 [Example 254, (5R)-3-[4-(Cyclohexylmethoxy)-3-methylbenzyl]-5-methyl-1,3-oxazolidin-2-one] |
| 805 | CC(=O)c1ccccc1-c1ccc(CN2C[C@@H](C)OC2=O)cc1 [Example 175] |
| 336 | CC1(C)COC(=O)N(Cc2ccc(OC3CCCCC3)cc2)C1 [Example 43] |
| 118 | COc1cc(F)ccc1COc1ccc(CN2CC(C)OC2=O)cc1 (stereo not drawn) [Example 147] |
| 71.8 | CC1CN(Cc2ccc(OCc3ccc(F)cc3Cl)cc2)C(=O)O1 (stereo not drawn) [Example 115] |
| 25.7 | CCOc1ccccc1COc1ccc(CN2CC(C)OC2=O)cc1 (stereo not drawn) [Example 114] |
| 218 | O=C1OC(c2ccccc2)CN1Cc1ccc(OCc2cccnc2)cc1 (stereo not drawn) [Example 13] |
| 56 | C[C@@H]1CN(Cc2ccc(-c3ccc(C(F)(F)F)cc3F)c(F)c2)C(=O)O1 [Example 292] |
| 91.2 | CC1CN(Cc2ccc(OCc3cccc(Cl)c3)cc2)C(=O)O1 (stereo not drawn) [Example 108] |
| 116 | C[C@@H]1CN(Cc2ccc(-c3ccc(Cl)c(Cl)c3)nc2)C(=O)O1 [Example 261] |
| 187 | CC1CN(Cc2ccc(OCCC3CC3)cc2)C(=O)O1 (stereo not drawn) [Example 93] |
| 282 | O=C1OCCCN1Cc1ccc(OCCC2CCCCC2)cc1 [Example 34] |
| 677 | CC(Oc1ccc(CN2CCOC2=O)cc1)C1CCCCC1 (stereo not drawn) [Example 42] |
| 625 | C[C@@H]1CN(Cc2ccc3c(c2)Cc2ccccc2-3)C(=O)O1 [Example 185] |
| 155 | O=C1OC(c2ccccc2)CN1Cc1ccc(OC2CCCCC2)cc1 (stereo not drawn) [Example 40] |
| 120 | Cc1nc(-c2ccccc2)ncc1COc1ccc(CN2CC(C)OC2=O)cc1 (stereo not drawn) [Example 133] |
| 356 | C[C@H]1[C@@H](c2ccccc2)OC(=O)N1Cc1ccc(OC2CCCCC2)cc1 [Example 56] |

| EC50 [nM] | SMILES |
| --- | --- |
| 151 | CC(C)COc1ccc(CN2CC(c3ccccc3)OC2=O)cc1 (stereo not drawn) [Example 6] |
| 1670 | Cc1onc(-c2ccccc2)c1COc1ccc(CN2CC(C)OC2=O)cc1 (stereo not drawn) [Example 132] |
| 429 | Cc1ccc(-c2ccc(CN3C[C@@H](C)OC3=O)cn2)c(F)c1 [Example 257] |
| 29.3 | C[C@@H]1CN(Cc2ccc(-c3ccc(C(F)(F)F)cc3F)cc2F)C(=O)O1 [Example 252] |
| 25.5 | CC1CN(Cc2ccc(OCC3CCCC3)cc2)C(=O)O1 (stereo not drawn) [Example 90] |
| 663 | CC(C)COc1ccc(CN2CC(C)(C)COC2=O)cc1 [Example 16] |
| 463 | C[C@@H]1CN(Cc2ccc(-c3ccc(OC(F)(F)F)cc3)nc2)C(=O)O1 [Example 255, (5R)-5-methyl-3-({6-[4-(trifluoromethoxy)phenyl]pyridin-3-yl}methyl)-1,3-oxazolidin-2-one] |
| 105 | CC(C)Oc1ccc(-c2ccc(CN3C[C@H](C)OC3=O)cc2)cc1 [Example 58, (5S)-3-[(4′-isopropoxybiphenyl-4-yl)methyl]-5-methyl-1,3-oxazolidin-2-one] |
| 819 | CC1(C)COC(=O)N(Cc2ccc(OCc3ccccc3)cc2)C1 [Example 21] |
| 135 | O=C1OC(c2ccccc2)CN1Cc1ccc(OCC2CCC2)cc1 (stereo not drawn) [Example 9] |
| < 14.9 | CC1CN(Cc2ccc(OCCC(C)(C)C)cc2)C(=O)O1 (stereo not drawn) [Example 96] |
| 774 | CCC(CC)Oc1ccc(CN2CC(C)OC2=O)cc1 (stereo not drawn) [Example 136] |
| 73.7 | CC1CN(Cc2ccc(OCc3c(F)cccc3F)cc2)C(=O)O1 (stereo not drawn) [Example 106] |
| < 59.9 | COc1ccc(-c2ccc(CN3C[C@@H](C)OC3=O)cc2F)c(F)c1F [Example 293] |
| 221 | COc1cccc(COc2ccc(CN3CC(C)OC3=O)cc2)c1 (stereo not drawn) [Example 103] |
| 92.1 | COc1ccc(F)c(COc2ccc(CN3CC(C)OC3=O)cc2)c1 (stereo not drawn) [Example 151] |
| 531 | C[C@@H]1CN(Cc2ccc(-c3ccc(OC(F)F)cc3)nc2)C(=O)O1 [Example 313] |
| 386 | O=C1OC[C@@H]2CCCC[C@@H]2N1Cc1ccc(OC2CCCCC2)cc1 [Example 41] |
| 1370 | COc1ccc(F)c(F)c1-c1ccc(CN2C[C@@H](C)OC2=O)cn1 [Example 263] |
| 196 | C[C@@H]1CN(Cc2ccc(OCC3CCCCC3)c(F)c2)C(=O)O1 [Example 227, (5R)-3-[4-(cyclohexylmethoxy)-3-fluorobenzyl]-5-methyl-1,3-oxazolidin-2-one] |
| 562 | COc1ccc(Cl)cc1-c1ccc(CN2C[C@@H](C)OC2=O)cn1 [Example 266] |

| EC50 [nM] | SMILES |
| --- | --- |
| < 7.32 | C[C@@H]1CN(Cc2ccc(-c3ccccc3OC(F)(F)F)cc2)C(=O)O1 [Example 164] |
| 467 | C[C@H]1[C@@H](c2ccccc2)OC(=O)N1Cc1ccc(OCc2ccccc2)cc1 [Example 29] |
| 151 | CC1CN(Cc2ccc(OC(C)c3ccccc3)cc2)C(=O)O1 (stereo not drawn) [Example 46] |
| 55.9 | C[C@@H]1CN(Cc2ccc(-c3cccc(F)c3Cl)cc2F)C(=O)O1 [Example 251] |
| 934 | CC1CN(Cc2ccc(OCCCc3ccncc3)cc2)C(=O)O1 (stereo not drawn) [Example 116] |
| 424 | C[C@@H]1CN(Cc2ccc(-c3ccc(Cl)cc3F)nc2)C(=O)O1 [Example 210, (5R)-3-{[6-(4-Chloro-2-fluorophenyl)pyridin-3-yl]methyl}-5-methyl-1,3-oxazolidin-2-one] |
| 578 | C[C@@H]1CN(Cc2ccc(-c3ccc(OC(F)F)cc3Cl)nc2)C(=O)O1 [Example 312] |
| 34.5 | CC1CN(Cc2ccc(OCc3ccccc3Cl)cc2)C(=O)O1 (stereo not drawn) [Example 117] |
| 325 | CC(Oc1ccc(CN2CCN(CCC(F)(F)F)CC2=O)cc1)C1CCCCC1 (stereo not drawn) [Example 222] |
| 498 | C[C@@H]1CN(Cc2ccc(-c3cccc(C#N)c3)cc2)C(=O)O1 [Example 85] |
| 31.3 | C[C@@H]1CN(Cc2ccc(-c3ccc(F)cc3Cl)cc2)C(=O)O1 [Example 274] |
| 1890 | CC1CN(Cc2ccc(OC(C)C3CC3)cc2)C(=O)O1 (stereo not drawn) [Example 135] |
| 395 | O=C1OC(c2ccccc2)CN1Cc1ccc(OCCC2CCCCC2)cc1 (stereo not drawn) [Example 10] |
| 75.5 | CC(C)CCOc1ccc(CN2CC(C)OC2=O)cc1 (stereo not drawn) [Example 143] |
| 291 | CC(Oc1ccc(CN2CCN(CC3CCCC3)CC2=O)cc1)C1CCCCC1 (stereo not drawn) [Example 202] |
| 761 | O=C1OC[C@@H]2CCCC[C@@H]2N1Cc1ccc(OCC2CCC2)cc1 [Example 1] |
| 725 | CCN1CCN(Cc2ccc(OC(C)C3CCCCC3)cc2)C(=O)C1 (stereo not drawn) [Example 188, 1-[4-(1-cyclohexylethoxy)benzyl]-4-ethylpiperazin-2-one] |
| 763 | CC(Oc1ccc(CN2CCN(C(C)C)CC2=O)cc1)C1CCCCC1 (stereo not drawn) [Example 201] |
| 712 | CCCC(C)CN1CCN(Cc2ccc(OC(C)C3CCCCC3)cc2)C(=O)C1 (stereo not drawn) [Example 214] |
| 804 | COc1ccc(-c2ccc(CN3C[C@@H](C)OC3=O)cc2F)cn1 [Example 295] |
| < 40.1 | C[C@@H]1CN(Cc2ccc(-c3ccc(Cl)cc3Cl)cc2)C(=O)O1 [Example 273] |

| EC50 [nM] | SMILES |
| --- | --- |
| 286 | C[C@@H]1CN(Cc2ccc(-c3cnc4ccccc4c3)cc2)C(=O)O1 [Example 181] |
| 135 | COc1c(-c2ccc(F)cc2)ccc(CN2C[C@@H](C)OC2=O)c1F [Example 253] |
| 947 | CCC(CC)CN1CCN(Cc2ccc(OC(C)C3CCCCC3)cc2)C(=O)C1 (stereo not drawn) [Example 217] |
| < 25.3 | COc1ccc(F)c(F)c1-c1ccc(CN2C[C@@H](C)OC2=O)cc1 [Example 243] |
| 102 | C[C@@H]1CN(Cc2ccc(-c3ccc(C(F)(F)F)cc3Cl)nc2)C(=O)O1 [Example 268] |
| 217 | COc1cccc(CCOc2ccc(CN3CC(C)OC3=O)cc2)c1 (stereo not drawn) [Example 105] |
| 164 | CC(C)Oc1ccc(-c2ccc(CN3C[C@@H](C)OC3=O)cn2)c(Cl)c1 [Example 278] |
| 42 | CCC(C)CCOc1ccc(CN2CC(C)OC2=O)cc1 (stereo not drawn) [Example 94] |
| 164 | CCOc1ccc(COc2ccc(CN3CC(C)OC3=O)cc2)cc1 (stereo not drawn) [Example 119] |
| 310 | CC1CN(Cc2ccc(OCc3ccc(F)c(F)c3)cc2)C(=O)O1 (stereo not drawn) [Example 137] |
| 930 | C[C@@H]1CN(Cc2ccc(-c3cccc4cccnc34)cc2)C(=O)O1 [Example 173] |
| 113 | C[C@@H]1CN(Cc2ccc(-c3cc(Cl)cc(Cl)c3)cc2)C(=O)O1 [Example 187, (5R)-3-[(3′,5′-dichlorobiphenyl-4-yl)methyl]-5-methyl-1,3-oxazolidin-2-one] |
| 1830 | CCOC(=O)c1ccccc1-c1ccc(CN2C[C@@H](C)OC2=O)cc1 [Example 197] |
| < 13.4 | CC[C@H](Oc1ccc(CN2CC(C)OC2=O)cc1)c1ccccc1 (stereo partly drawn) [Example 148] |
| 214 | CCC[C@H](C)Oc1ccc(CN2CC(C)OC2=O)cc1 (stereo partly drawn) [Example 134] |
| 1250 | O=C1OCCCN1Cc1ccc(OCc2ccccc2)cc1 [Example 31] |
| 13.9 | Cc1cc(F)ccc1-c1ccc(CN2C[C@@H](C)OC2=O)cc1 [Example 159] |
| 1360 | CN(C)CC1CN(Cc2ccc(-c3ccc(F)cc3F)cc2)C(=O)O1 (stereo not drawn) [Example 307, 3-[(2′,4′-difluorobiphenyl-4-yl)methyl]-5-[(dimethylamino)methyl]-1,3-oxazolidin-2-one] |
